The test system of data set [1] is H1975. The data set is described as follows: MTT cell viability assay, H1975. The class given is cell-based, human. Conditions: Homo sapiens, read-out: CC50 (µM) (CI) H1975. The method, then:
(§1) The cytotoxic activity of compounds 3–13 was determined based on an MTT assay against different human tumor cell lines, using LASSBio-1586 (2), LASSBio-1735 (3), CA-4 (1) and pelitinib as standards (Table 2). To determine the cytotoxic selectivity index, compounds were also evaluated toward human lymphocytes (Table 3).
(§2) The target compounds were tested (0.0001–100 µM) for cytotoxic activity against selected human cancer cell lines, such as HL-60 (acute promyelocytic leukemia), MCF-7 (mammary adenocarcinoma), PC-3 (prostate adenocarcinoma), H1975 (non-small cell lung cancer—EGFR^L858R+T790M), PC-9 (non-small cell lung cancer—EGFR^L858R) H292 (mucoepidermoid pulmonary carcinoma—EGFR wild type), LoVo (colorectal adenocarcinoma—EGFRwild type) and GM16000 (lymphocyte). All the human cancer cell lines were purchased from Cell Bank of Rio de Janeiro—BCRJ. They were cultured in RPMI 1640 medium with 10% (v/v) FBS, 2 mM glutamine, at 37 °C in a humidified incubator containing 5% CO2.
(§3) The cytotoxicity of the compounds was evaluated by the MTT assay. […] For lymphocytic lines, a density of 0.3 × 10^6 cells/mL was used. Afterwards they were treated with varying concentrations of the target compounds 2–12 (0.0001–100 µM), CA-4 (1) and pelitinib at 37 °C, in triplicate. The medium was incubated with 20 μL of 5 mg/mL MTT solution for 3 h in a humidified incubator containing 5% CO2 [11].
(§4) The purple-colored formazan crystals formed in the wells were dissolved in DMSO and their absorbance was measured at 595 nm with a microplate reader (SpectraMax M5, Molecular Devices).

Data set [2] deals with HL-60. The experiment in a line: MTT cell viability assay, HL-60. Conditions: Homo sapiens, read-out: CC50 (µM) (CI) HL-60. The class given is cell-based, human. On the procedure:
as §1, §2, §3, §4
For orientation: Formazan colour is commonly taken as a measure of viable cells.

For data set [3], the system named is PC-3. The data set is described as follows: MTT cell viability assay, PC-3. In kind it is cell-based. To be noted: Homo sapiens, read-out: CC50 (µM) (CI) PC-3. The method, then:
as §1, §2
(§5) The cytotoxicity of the compounds was evaluated by the MTT assay. The cell lines were cultured in 96 well plates for 72 h with a density of 0.1 × 10^5 cells/mL to 0.7 × 10^5 cells/mL to adherent cell lines. For lymphocytic lines, a density of 0.3 × 10^6 cells/mL was used. Afterwards they were treated with varying concentrations of the target compounds 2–12 (0.0001–100 µM), CA-4 (1) and pelitinib at 37 °C, in triplicate. The medium was incubated with 20 μL of 5 mg/mL MTT solution for 3 h in a humidified incubator containing 5% CO2 [11].
as §4

The test system of data set [4] is LoVo. The experiment in a line: MTT cell viability assay, LoVo. To be noted: Homo sapiens, read-out: CC50 (µM) (CI) LoVo. In kind it is cell-based. The method, then: as §1, §2, §5, §4
The test system of data set [5] is H1975 cells. The data set is described as follows: Immunofluorescence of β-tubulin / microtubules. The class given is cell-based, human. Conditions: H1975, 48 h; CA-4 0.3 µM, vincristine 0.5 µM, taxol 0.1 µM, LASSBio-1586 10 µM, LASSBio-1735 0.5 µM, LASSBio-2070 4.5 µM, LASSBio-2074 20 µM. The method, then: Antitubulin agents have been broadly classified into destabilizing or stabilizing agents, based on their interference with the dynamic balance of polymerization or depolymerization of microtubules. […] CA-4 (1, 0.3 µM), vincristine (0.5 µM) and taxol (0.1 µM) were used as standard controls.
After incubation, cells were rinsed with PBS and fixed with 4% paraformaldehyde in PBS for 10 min at room temperature. They were then permeabilized with 0.5% Triton-X 100 in PBS 3 times for 10 min. The same solution was used for all subsequent washing steps. Cells were incubated with an anti-beta-tubulin antibody for 1 h at 37 °C. After incubation, cells were washed for 30 min and incubated with Alexa Fluor® 488, conjugated secondary antibody for 1 h at 37 °C, and nuclei were labeled with DAPI (0.1 mg/mL in 0.9% NaCl).
Live cultured cells grown in coverslips were mounted in Prolong Gold solution (Molecular Probes, USA) and were imaged on a Leica TCS SPE confocal microscope (Leica Microsystems, Germany) using 63x 1.3 N.A. oil immersion and the images acquired by the LAS X software. Cell morphology, focusing on the microtubules was analyzed, qualitatively, using the public domain NIH ImageJ Program (developed at the National Institutes of the USA Health and available on the internet at http://imagej.nih.gov/ij/ (accessed on 1 September 2021).

A short description of data set [6]: MTT cell viability assay, GM16000 lymphocytes. In kind it is cell-based. To be noted: human lymphocytes, value (95% CI).
Data set [7] relates to MCF-7. The experiment in a line: MTT cell viability assay, MCF-7. In kind it is cell-based, human. To be noted: Homo sapiens, MCF7, 72 h, read-out: CC50 (µM) (CI) MCF-7. On the procedure:
as §1, §2, §5, §4

The nature of data set [8]: MTT cell viability assay, GM16000 lymphocytes. The class given is cell-based. Conditions: human lymphocytes, value (95% CI). The method, then: as §1
To establish the cytotoxic selective index (SI) of LASSBio-1586 homologs, they were studied on human lymphocyte cell lines (GM16000), using the MTT assay. The SI was calculated by the ratio between the CC50 on tumor and non-tumor cell lines. Although there is no consensus, values of SI ≥ 10 is considered satisfactory to assign safety to a new cytotoxic agent. This value means that the compound is more than ten times more cytotoxic to the tumor cell line than to normal cell line.
as §2, §5, §4
The source holds these as a separate data set.

Data set [9] has as its system PC-9. The data set is described as follows: MTT cell viability assay, PC-9. The class given is cell-based, human. Conditions: Homo sapiens, read-out: CC50 (µM) (CI) PC-9. The method, then: as §1, §2, §3, §4
In data set [10] the test system is H292. The data set is described as follows: MTT cell viability assay, H292. To be noted: Homo sapiens, read-out: CC50 (µM) (CI) H292. In kind it is cell-based, human. The method, then: as §1, §2, §3, §4
For data set [11], the system named is H1975 cells. The experiment in a line: Cell cycle analysis by flow cytometry (Guava Muse Cell Cycle Kit). The class given is cell-based, human. Conditions: H1975, 48 h of treatment; CA-4 0.04 µM, LASSBio-1586 2.0 µM, LASSBio-1735 0.08 µM, LASSBio-2070 3.0 µM, LASSBio-2074 1.5 µM; vs DMSO 0.1%. The method, then:
Changes in the cell cycle are important aspect in tumorigenesis. Therefore, the identification of the steps related to inhibition of cell multiplication is an important process during the discovery of new antitumoral drug candidates. […] Flow cytometry was used for cell cycle analysis to estimate the percentages of a cell population in the different phases of the cell cycle. The analysis was performed using the lung cancer cell line H1975 treated with CA-4 (1, 0.04 µM), LASSBio-1586 (2, 2.0 µM), LASSBio-1735 (3, 0.08 µM), LASSBio-2070 (10, 3.0 µM) and LASSBio-2074 (11, 1.5 µM).
(§6) Flow cytometry was applied to help elucidate the mechanism of action of the studied compounds, both to verify the cell cycle phase and to verify the action on EGFR protein kinase.
The anti-tubulin effect was evaluated by seeding H1975, H292 and PC-9 into 6-well plates at a density of 2 × 10^5 per well. […] Cells were harvested and stained according to the protocols of The Guava Muse® Cell Cycle Kit (MCH100106) to quantitatively measure the percentage of cells in the G2/M phases of the cell cycle and the EGFR-RTK Activation Dual Detection Kit (MCH200102) (Luminex®) to measure EGFR phosphorylation in relation to total EGFR expression in the cell population, according to the manufacturer’s instructions for use in test kits using a Guava Muse® Cell Analyzer (Luminex®). Each experiment was performed at least three times independently.
(A flow cytometer gives signals particle by particle.)

For data set [12], the system named is LoVo. The data set is described as follows: MTT cell viability assay, LoVo. The class given is cell-based. To be noted: Homo sapiens, 48 h, value (95% CI).
In data set [13] the test system is EGFR in PC-9 cell line (EGFR^L858R). The data set is described as follows: Guava Muse EGFR-RTK Activation Dual Detection Kit, flow cytometry. In kind it is cell-based, human. The method, then:
as §6
The anti-tubulin effect was evaluated by seeding H1975, H292 and PC-9 into 6-well plates at a density of 2 × 10^5 per well. The cells were treated with the selected compounds for 72 h. Cells were harvested and stained according to the protocols of The Guava Muse® Cell Cycle Kit (MCH100106) to quantitatively measure the percentage of cells in the G2/M phases of the cell cycle and the EGFR-RTK Activation Dual Detection Kit (MCH200102) (Luminex®) to measure EGFR phosphorylation in relation to total EGFR expression in the cell population, according to the manufacturer’s instructions for use in test kits using a Guava Muse® Cell Analyzer (Luminex®). Each experiment was performed at least three times independently.

[14] abbreviates: GM16000 lymphocyte cells (non-tumor).

The structures appear in SMILES notation. “And” between values parts separate entries of the source, which are not always exact repeats. Equal entries are not always repeated. Where two headings read alike, the source gives them in different places.

One may read the CC50 as the concentration that lowers cell viability or growth by half. In the case of `COc1ccc(/C=C\c2cc(OC)c(OC)c(OC)c2)cc1O` [CA-4 (1), Combretastatin A-4, reference compound], the CC50 in [1] (NCI-H1975, 48 h) stood at 0.058 µM; in data set [1] (NCI-H1975, 72 h), 0.035 µM; in [2] (HL-60, 48 h) it was 1.3 µM; in data set [2] (HL-60, 72 h), 0.077 µM; in data set [3] (PC-3, 72 h), 0.096 µM; in [4] (48 h) it was 0.179 µM. Moreover, the CC50 in [4] (72 h) stood at 0.039 µM; in data set [7], 8.58 µM; in data set [9] (PC-9, 48 h) it was 0.025 µM; in [9] (PC-9, 72 h) it was 0.01 µM; in data set [10] (NCI-H292, 48 h) it was 0.091 µM; in [10] (NCI-H292, 72 h) it was 0.013 µM. In data set [5], the “cell morphology after treatment” value is “rounded shape”. Besides, the “effect on microtubules (stabilizing / destabilizing profile)” value in data set [5] was “typical response of microtubule destabilizing agents”. In data set [6], this molecule gave a CC50 at 48 h of 0.016 µM. Also, the CC50 at 72 h in data set [8] is 0.064 µM. Moreover, in data set [11], the “cell cycle distribution (G0/G1, S, G2/M)” value was “increased cells in phase G2/M”.
For orientation: melting point means the temperature, or range, at which the solid turns liquid. In the case of `C#CCN(/N=C/c1ccccc1)C(=O)c1cc(OC)c(OC)c(OC)c1` [LASSBio-2072 (9), (E)-N’-benzylidene-3,4,5-trimethoxy-N-(prop-2-yn-1-yl)benzohydrazide], the melting point was 133.91 °C and 133 to 134 °C. Moreover, the CC50 in data set [1] (NCI-H1975, 48 h, MTT, 48 h, value (95% CI)) was 5.34 µM. Moreover, the CC50 in data set [1] (NCI-H1975, 72 h, MTT, 72 h, value (95% CI)) was found to be 3.98 µM. In data set [12], the CC50 turned out to be 3.05 µM. Besides, in [2] (HL-60, 48 h, MTT, 48 h, value (95% CI)), the CC50 was 5.85 µM. For the same molecule, the CC50 in [2] (HL-60, 72 h, MTT, 72 h, value (95% CI)) was determined as 0.158 µM. For the same molecule, the CC50 in [3] (PC-3, MTT, 72 h, value (95% CI)) turned out to be 2.25 µM. Besides, the CC50 in [4] (MTT, 72 h, value (95% CI)) was 0.399 µM. Also, the midpoint of cytotoxicity in data set [6] (setting [14]), the CC50 at 48 h, lay at 2.52 µM. The CC50 in [7] (MTT, 72 h, value (95% CI)) was 2.32 µM. This molecule also returned a CC50 at 72 h in [8] (setting [14]) of 0.612 µM. Also, in [9] (PC-9, 48 h, MTT, 48 h, value (95% CI)), the CC50 was 1.27 µM. Also, the CC50 in [9] (PC-9, 72 h, MTT, 72 h, value (95% CI)) worked out at 0.46 µM. In [10] (NCI-H292, 48 h, MTT, 48 h, value (95% CI)), the CC50 worked out at 0.45 µM. For the same molecule, the CC50 in data set [10] (NCI-H292, 72 h, MTT, 72 h, value (95% CI)) was 3.14 µM.
As for `C=CC(=O)Nc1cc(Nc2nccc(-c3cn(C)c4ccccc34)n2)c(OC)cc1N(C)CCN(C)C` [Osimertinib, reference compound], the “cells with Inactivated EGFR (EGFR inactivation index)” value in data set [13] is recorded as 30%.

Values taken from paper PMC9394307, “Discovery of Putative Dual Inhibitor of Tubulin and EGFR by Phenotypic Approach on LASSBio-1586 Homologs” (Pharmaceuticals, 2022).
